According to the supplement of paper PMC10307832:

Key:
Assay in all cases: relative viability (nuclei count vs DMSO), 5 days (fraction); higher = more cells survive
QS11 + Foretinib = compound: C1CC2=C(C1)C=C(C=C2)OC3=NC(=C4C(=N3)N(C=N4)CC5=CC=C(C=C5)C6=CC=CC=C6)N[C@@H](CC7=CC=CC=C7)CO [QS11] + COc1cc2c(Oc3ccc(NC(=O)C4(C(=O)Nc5ccc(F)cc5)CC4)cc3F)ccnc2cc1OCCCN1CCOCC1 [Foretinib] (partner 0.25 µM)
Method in brief: (§1)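 Nuclei were stained with Hoechst during a one-step fixation (final 0.05% Triton X-100, 1% formaldehyde, 1 ug/ml Hoechst) carried out 5 days after dosing, then counted on 4× images. The cells, lung cancer lines in 1536-well plates, had been dosed by pin tool the day after seeding with one drug alone or a fixed anchor-drug dose plus five library-drug doses (not always all listed) in √10 steps. Relative viability is the nuclei count in treated wells divided by that in vehicle wells, and each value is the median of duplicate plates.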

AZ628 + Pemetrexed = compound: CC1=C(C=C(C=C1)NC(=O)C2=CC(=CC=C2)C(C)(C)C#N)NC3=CC4=C(C=C3)N=CN(C4=O)C [AZ628] + Nc1nc2[nH]cc(CCc3ccc(C(=O)N[C@@H](CCC(=O)O)C(=O)O)cc3)c2c(=O)[nH]1 [Pemetrexed] (partner 0.2 µM)
Method in brief: as §1

[1] = compound: C[As](C)SC[C@H](NC(=O)CC[C@H](N)C(=O)O)C(=O)NCC(=O)O [Darinaparsin] + Cc1cc(Nc2cc(N3CCN(C)CC3)nc(Sc3ccc(NC(=O)C4CC4)cc3)n2)n[nH]1 [Tozasertib] (partner 0.1 µM)
Method in brief: as §1

[2] = compound: C[As](C)SC[C@H](NC(=O)CC[C@H](N)C(=O)O)C(=O)NCC(=O)O [Darinaparsin] + Nc1ncn([C@H]2C[C@H](O)[C@@H](CO)O2)c(=O)n1 [Decitabine] (partner 2 µM)
Method in brief: as §1

Cell Line	relative viability (QS11 + Foretinib; first compound 0.08 µM)	relative viability (QS11 + Foretinib; first compound 0.253 µM)	relative viability (QS11 + Foretinib; first compound 0.8 µM)	relative viability (QS11 + Foretinib; first compound 2.53 µM)	relative viability (QS11 + Foretinib; first compound 8 µM)	relative viability (AZ628 + Pemetrexed; first compound 0.08 µM)	relative viability (AZ628 + Pemetrexed; first compound 0.253 µM)	relative viability (AZ628 + Pemetrexed; first compound 0.8 µM)	relative viability (AZ628 + Pemetrexed; first compound 2.53 µM)	relative viability (AZ628 + Pemetrexed; first compound 8 µM)	relative viability ([1]; first compound 0.08 µM)	relative viability ([1]; first compound 0.8 µM)	relative viability ([1]; first compound 2.53 µM)	relative viability ([1]; first compound 8 µM)	relative viability ([2]; first compound 0.08 µM)	relative viability ([2]; first compound 0.8 µM)	relative viability ([2]; first compound 2.53 µM)	relative viability ([2]; first compound 8 µM)
PC-14	1.11	0.95	0.777	0.889	1.06	0.136	0.121	0.105	0.105	0.0944	0.707	0.479	0.768	0.577	0.253	0.197	0.201	0.202
EPLC-272H		0.817	0.64	0.677	0.692	0.229	0.309	0.265	0.293	0.248		0.308	0.229	0.277	0.377	0.37	0.353	0.329
NCI-H2228	0.835	0.827	0.755	1	1.03	0.348	0.296	0.351	0.355	0.234	0.217	0.217	0.286	0.235				
LC-2-ad	0.921	0.924	0.839	1.04	0.889	0.3	0.29	0.262	0.274	0.266	0.49	0.425	0.329	0.35	0.905	0.838	0.786	0.899
HOP-62	1.11	1.33	0.766	0.742	0.708	0.311	0.343	0.305	0.409	0.271	0.352	0.414	0.343	0.354	0.233	0.27	0.235	0.23
UMC-11	1.13	1.1	1.07	1.32	1.06	0.818	0.799	0.79	0.763	0.814	0.215	0.211	0.211	0.188	0.563	0.574	0.636	0.677
Calu-6	1.04	0.93	0.897	0.953	0.998													
HCC-44						0.629	0.682	0.643	0.706	0.679	1.21	0.927	0.769	0.87	1.05	0.966	0.924	0.977
NCI-H727	1.2	0.888	0.829	1.06	0.869						0.731	0.552	0.699	0.599	0.891	0.816	0.9	1.04
A-427	1.13	1.15		1.22	1.17	1.12	0.97	1.01	0.957	0.609	0.2	0.215	0.177	0.193	0.569	0.517	0.581	0.493
SK-MES-1	0.985	0.783	0.918	0.605	0.778	0.867	0.915	0.844	0.91	0.59	1.08	0.854	0.74	0.968	0.358	0.357	0.34	0.388
NCI-H1623	0.807	0.829	0.751	0.775	1.01						0.467	0.404	0.416	0.399				
HCC-827	1.05	1.05	0.8	1.02	0.812	0.258	0.209	0.256	0.314	0.226	0.435	0.453	0.422	0.491	0.284	0.316	0.32	0.363
EKVX	0.732	0.764		0.848	1.23	0.419	0.422	0.338	0.407	0.312	0.431	0.448	0.32	0.4	0.339	0.323	0.382	0.314
SW 900	0.981	0.875	0.844	0.774	0.8	0.495	0.489	0.471	0.461	0.451	0.677	0.538	0.658	0.555	0.44		0.404	0.462
NCI-H661	1	1.02	0.913	1.05	1.03	0.95	0.979	0.867	0.848	0.822	0.357	0.351	0.377	0.361	0.581	0.528	0.523	0.652
NCI-H1975	1.02	1.02	1.04	1.32	1.35	0.333	0.257	0.27	0.287	0.259	1.12	0.804	0.783	0.905	0.382	0.429	0.425	0.374
NCI-H1944	0.886	0.967		0.641	0.671	0.624	0.576	0.511	0.52	0.394	0.245	0.263	0.251	0.243	0.437	0.466	0.452	0.442
SK-LU-1	0.782	0.874	0.68	0.784	0.641	0.603	0.973	0.885	1.01	0.66	0.402	0.278	0.294	0.316	0.637	0.587	0.495	0.759
NCI-H1755	0.962	0.841	0.566	0.732	0.683	0.421	0.434	0.403	0.579	0.353	0.576	0.471	0.483	0.616	0.748	0.801	0.714	0.784
